What all share (type): cell-based
One test has as its system HCT116 cells. The test is described as follows: Effects on HCT116 colorectal cancer cell viability (cell titre blue, 72 hours). The settings on record: Homo sapiens, HCT-116, HCT116 cell line.
The test system of a further test is HeLa cells. The experiment in a line: Arresting cells in mitosis (Mitotic Index, phosphorylated Histone H3 immunofluorescence). To be noted: HeLa cell line, 24 hours; for EC50: Homo sapiens, Mitotic Index, read-out: EC50. The protocol: Assay to Measure the Effects of Compounds of the Invention on Arresting Cells in Mitosis
Inhibiting the ability of PLK1 to bind to its phosphopeptide binding partners through the PBD causes cells to arrest in mitosis. Experimentally, this is measured by assessing the number of cells which are in mitosis at a certain time after treatment with a PLK1-PBD inhibitor by immunofluorescent detection of phosphorylated Histone H3 (pH3), a marker which is only present in mitotic cells. PLK1-PBD inhibitors are expected to cause a dose-dependent increase in pH3-positive cells, which is reported as Mitotic Index (MI)—the percentage of cells which, at a given time, are positive for this mitotic mark. The following protocol has been used to measure MI: • 1. Plate HeLa cells at 10,000/well in 100 μL/well in clear flat-bottom 96-well plates and incubate overnight. • 2. Immediately prior to treatment, dilute compounds in medium in a 96-well round-bottom plate. Make up all compounds at 5 times final desired concentration on cells, and serially dilute 1:2 across the plate ensuring that there is 100 μL of each concentration (start with 200 μl of the top concentration on the left of the plate). […] Treat cells by adding 25 μL from the compound dilution plate to triplicate wells. • 4. Incubate cells with compound for 24 hours. • 5. After 24 hours, fixation and staining is carried out as follows: • 6. Dilute 37% formaldehyde in PBS to give a 12.95% solution by adding 3.5 mL formaldehyde to 6.5 mL of PBS. • 7. Add 50 μL of formaldehyde fixation solution directly to each well of cells (which already contain 125 μL medium). • 8. Incubate at room temp for 10 minutes. • 9. Remove fixative and add 100 μL/well PBS+0.1% Triton X-100 for 10 minutes. • 10. Aspirate and add 100 μL/well PBS+1% BSA. • 11. Aspirate and add 50 μL/well of primary antibody (anti-PH3 [1:2000]/anti-MPM2 [1:1000]) diluted in PBS+1% BSA. Incubate for 1 hour. • 12. Wash×2 with 100 μL/well PBS+1% BSA. • 13. Add 50 μL/well of secondary antibody plus Hoechst stain (anti-rabbit Alexafluor 488 [1:500]; anti-mouse Alexafluor 546 [1:500]+Hoechst 33342 [1:2500 final concentration=4 μg/mL])diluted in PBS+1% BSA. Incubate for 1 hour. • 14. Wash twice with 100 μL/well PBS+1% BSA. • 15. Aspirate and add 100 μL/well PBS. Plates can be stored at 4° C. in PBS for several weeks before scanning on the Cellomics Arrayscan. […] Scan on Cellomics using Target Activation Bioapplication. • 17. MI data emerging from the Cellomic Bioapplication can be used to plot MI versus compound concentration, and subsequently used to generate an EC50 value for each compound using an appropriate graphing/curve-fitting package such as GraphPad Prism.

The next test concerns wild-type HeLa cell line. The test is described as follows: Wild-type versus KRAS HeLa cell viability: wild-type KRAS transgene. The settings on record: Homo sapiens; HeLa cells expressing wild-type KRAS, 72 hours; read-out: WT GI50. On the procedure:
(§1) Assay to Measure the Effects of Compounds of the Invention on Wild-Type Versus KRAS HeLa Cell Viability
(§2) Identifying synthetic lethal interactions between targeted small molecule therapies and characterised oncogenic mutations is a goal of modern oncology drug discovery efforts. To this end, PLK1-PBD inhibitors were tested on HeLa cells engineered to inducibly express wild-type or oncogenic KrasG12V transgenes using the FLP-in/T-Rex system (Invitrogen). Cells were plated, and then treated with or without Doxycycline to induce transgene expression, and then treated with serially-diluted PBD inhibitors. After 72 hours of incubation, cell viability was assessed using the Cell Titre Blue reagent (Promega) and a BMG Pherastar plate reader. The effect of PBD inhibition on cell viability with either wild-type or oncogenic G12V KRAS was assessed using the graphing/curve-fitting packages in GraphPad Prism.

The next test deals with KRAS G12V HeLa cell line. The test is described as follows: Wild-type versus KRAS HeLa cell viability: oncogenic KrasG12V transgene. The settings on record: Homo sapiens; HeLa cells expressing KRAS G12V, 72 hours. On the procedure: as §1, §2
For test [1], the system named is HCT116 cells (a mutant KRAS G-13D expressing cell line). The test is described as follows: Drug resistance studies in HCT116 cells. To be noted: five times the half maximal growth inhibiting amount, twenty two days.

Each structure is given as a SMILES string. Counter-ions that a name gives are not always drawn.

The term GI50 denotes the concentration that inhibits growth by half. What is called EC50 is the concentration needed to bring the measured effect to its halfway point.

On to `CN(C)CCCNC(=O)c1cccc(-c2ccc(-c3ccc(Br)cc3)n2-c2ccccc2C(F)(F)F)c1` [Example 24], for which the concentration for 50% growth inhibition (GI50) in the test on HCT116 cells came out at 490 nM; in the test on wild-type HeLa cell line it was 260 nM; with KRAS G12V HeLa cell line, 80 nM. In the test on HeLa cells, the “% mitotic cells” value is on record as 77%. For the same compound, the EC50 in the test on HeLa cells amounted to 620 nM.

As for `CN(C)CCNC(=O)c1ccc(-c2ccc(-c3ccc(Br)cc3)n2-c2ccccc2C(F)(F)F)cc1` [Example 9, 4-[5-(4-Bromophenyl)-1-[2-(trifluoromethyl)phenyl]pyrrol-2-yl]-N-[2-(dimethylamino)ethyl]benzamide Hydrochloride], the concentration for 50% growth inhibition (GI50) with HCT116 cells is 30 nM; in the test on wild-type HeLa cell line, 50 nM; in the test with KRAS G12V HeLa cell line, 20 nM. In addition, in the test with HeLa cells, the “% mitotic cells” value is given as 89%. Besides, the EC50 in the test on HeLa cells was found to be 190 nM.

As for `CN1CC[C@@H](NC(=O)c2ccc(-c3ccc(-c4ccc(Cl)cc4)n3-c3ccccc3C(F)(F)F)cc2)C1` [Example 70, hydrochloride], the figures for the GI50 in the test on HCT116 cells, in the test on wild-type HeLa cell line and in the test on KRAS G12V HeLa cell line were 20 nM, 5 nM and 3 nM, respectively.

Consider `CN(C)CCNC(=O)c1cccc(-c2ccc(-c3ccc(Br)cc3)n2-c2ccccc2C(F)(F)F)c1` [Example 2, 3-[5-(4-Bromophenyl)-1-[2-(trifluoromethyl)phenyl]pyrrol-2-yl]-N-[2-(dimethylamino)ethyl]benzamide Hydrochloride], for which, in the test on HeLa cells, the “% mitotic cells” value was determined as 86% and the EC50 is 860 nM. Further, the concentration for 50% growth inhibition (GI50) in the test with wild-type HeLa cell line stood at 180 nM. For the same compound, the GI50 with KRAS G12V HeLa cell line was 50 nM.

Consider `COc1ccc(-c2ccc(-c3ccc(Br)cc3)n2-c2ccccc2C(F)(F)F)cc1C(=O)NCCN(C)C` [Example 53, hydrochloride], for which the GI50 with HCT116 cells was found to be 560 nM; in the test with wild-type HeLa cell line, 340 nM; in the test on KRAS G12V HeLa cell line it was 220 nM.

Regarding `CN(C)CCNC(=O)c1ccc(-n2ncc(-c3ccc(Cl)cc3)c2-c2ccccc2C(F)(F)F)cc1` [Example 82, 4-[4-(4-Chlorophenyl)-5-[2-(trifluoromethyl)phenyl]pyrazol-1-yl]-N-[2-(dimethylamino)ethyl]-benzamide Hydrochloride], the GI50 in the test with HCT116 cells turned out to be 40 nM; in the test on wild-type HeLa cell line it was 30 nM; in the test on KRAS G12V HeLa cell line, 10 nM.

For `CN(C)CCCNC(=O)c1ccc(-c2ccc(-c3ccc(F)cc3)n2-c2ccccc2C(F)(F)F)cc1` [Example 60, hydrochloride], the GI50 with HCT116 cells came out at 60 nM; in the test with wild-type HeLa cell line, 30 nM; in the test with KRAS G12V HeLa cell line it was 10 nM.

On to `CN(C)CCNC(=O)c1ccc(-c2ccc(-c3ccccc3)n2-c2ccccc2C(F)(F)F)cc1` [Example 26, hydrochloride], for which the figures for the GI50 with HCT116 cells, in the test with wild-type HeLa cell line and in the test with KRAS G12V HeLa cell line were 120 nM, 120 nM and 70 nM, respectively.

With `CN(C)CCNC(=O)c1cccc(-c2ccc(-c3ccc(Br)cc3)n2-c2ccccc2N)c1` [Example 56, hydrochloride], the GI50 in the test with HCT116 cells was determined as 2710 nM; in the test with wild-type HeLa cell line, 2190 nM; in the test on KRAS G12V HeLa cell line, 2520 nM.

For `CN1CC[C@H](NC(=O)c2ccc(-c3ccc(-c4ccc(Cl)cc4)n3-c3ccccc3C(F)(F)F)cc2)C1` [Example 71, hydrochloride], the GI50 with HCT116 cells stood at 20 nM; with wild-type HeLa cell line, 10 nM; in the test with KRAS G12V HeLa cell line, 5 nM.

On to `CNCCNC(=O)c1cccc(-c2ccc(-c3ccc(Br)cc3)n2-c2ccccc2C(F)(F)F)c1` [Example 23], for which the concentration for 50% growth inhibition (GI50) in the test with HCT116 cells was determined as 390 nM; in the test on wild-type HeLa cell line, 240 nM; in the test with KRAS G12V HeLa cell line, 80 nM. The “% mitotic cells” value in the test on HeLa cells is reported as 79%. The EC50 in the test on HeLa cells turned out to be 740 nM.

Regarding `CC[C@@H]1C(=O)N(C)c2cnc(Nc3ccc(C(=O)NC4CCN(C)CC4)cc3OC)nc2N1C1CCCC1` [Example B12536, 4-[[(7R)-8-cyclopentyl-7-ethyl-5,6,7,8-tetrahydro-5-methyl-6-oxo-2-pteridinyl]amino]-3-methoxy-N-(1-methyl-4-piperidinyl)benzamide, reference compound], the “formation of drug-resistant colonies” value in test [1] was “drug-resistant colonies were formed”.

For the compound `CN(C)CCNC(=O)c1ccc(-c2ccc(-c3ccc(Br)cc3)n2-c2cnccc2C(F)(F)F)cc1` [Example 41], the 50% growth inhibitory concentration (GI50) in the test with HCT116 cells was 50 nM; in the test on wild-type HeLa cell line, 40 nM; in the test on KRAS G12V HeLa cell line, 20 nM.

For `CN(C)CCNC(=O)c1ccc(-c2ccc(-c3ccc(C#N)cc3)n2-c2ccccc2C(F)(F)F)cc1` [Example 57], the GI50 with HCT116 cells came out at 60 nM; with wild-type HeLa cell line, 50 nM; with KRAS G12V HeLa cell line, 30 nM.

Take `CN(C)CCNC(=O)c1ccc(-c2ccc(-c3ccc(F)nc3)n2-c2ccccc2C(F)(F)F)cc1` [Example 42, hydrochloride]: the concentration for 50% growth inhibition (GI50) in the test with HCT116 cells amounted to 380 nM; with wild-type HeLa cell line, 130 nM; in the test on KRAS G12V HeLa cell line it was 50 nM.

As for `CN(C)CCCNC(=O)c1ccc(-c2ccc(-c3ccc(Br)cc3)n2-c2ccccc2C(F)(F)F)cc1` [Example 34], the results for the GI50 with HCT116 cells, in the test on wild-type HeLa cell line and in the test with KRAS G12V HeLa cell line were 80 nM, 130 nM and 90 nM, respectively.

Consider `CN(C)CCNC(=O)c1ccc(-c2ccc(-c3ccc(Br)cc3)n2-c2ccccc2C(F)(F)F)c(Cl)c1` [Example 36, hydrochloride], for which the values for the GI50 in the test with HCT116 cells, with wild-type HeLa cell line and with KRAS G12V HeLa cell line were 30 nM, 120 nM and 60 nM, respectively.

`CN(C)CCCOc1ccc(-c2ccc(-c3ccc(Br)cc3)n2-c2ccccc2C(F)(F)F)cc1` [Example 35, hydrochloride]: the GI50 was 220 nM with HCT116 cells, 210 nM in the test on wild-type HeLa cell line and 140 nM with KRAS G12V HeLa cell line.

In the case of `CN(C)CCNC(=O)Cc1ccc(-c2ccc(-c3ccc(Cl)cc3)n2-c2ccccc2C(F)(F)F)cc1` [Example 91, hydrochloride], the GI50 was 10 nM with HCT116 cells, 10 nM with wild-type HeLa cell line and 5 nM in the test with KRAS G12V HeLa cell line.
